Like-named read-outs stand apart in the source and are kept apart here.
Tests used:
[1] = tested on: M. tuberculosis H37Rv-GFP; test: microbe, parasite or virus in culture; format: cell-based, Mycobacterium tuberculosis; details: Mycobacterium tuberculosis, H37RV, Macrophage
Raw264.7 cells = test: Cell number (CellNb) from image analysis of the phenotypic cell-based assay; details: primary screen, 20 μM
[2] = confirmation, 20 uM, intracellular, read-out: QIM Confirm % Inhibition 20 uM
[3] = primary screen, 20 μM, intracellular, read-out: Primary QIM % Inhibition
[4] = read-out: Primary QIM % Inhibition
[5] = read-out: QIM Confirm % Inhibition 20 uM

CC(=O)OC(OC(C)=O)c1ccc([N+](=O)[O-])s1 [IPK 000 155 36]
inhibition at 20 µM [1, 2]: 74%
inhibition at 20 µM [1, 3]: 67.8%

O=C(Nc1ccc(Cl)c(Cl)c1)c1ccco1 [IPK 000 048 49]
inhibition at 20 µM [1, 4]: 84.5%
inhibition at 20 µM [1, 5]: 92.9%

CC(C)CCNC(=O)c1cccc(Cl)c1 [IPK 000 210 79]
inhibition at 20 µM [1, 2]: 28.7%
inhibition at 20 µM [1, 3]: 77.2%

O=C(Nc1ccc(Cl)cc1)Nc1ccc(C(F)(F)F)cc1 [IPK 000 146 98]
inhibition at 20 µM [1, 2]: 26.5%
inhibition at 20 µM [1, 3]: 55.8%

CCOC(=O)c1sc(NC(=O)CCC2CCCCC2)nc1C [IPK 000 255 46]
inhibition at 20 µM [1, 2]: 53.1%
inhibition at 20 µM [1, 3]: 25%

O=C(NCCC1=CCCCC1)C(=O)Nc1cccc(F)c1 [IPK 000 133 46]
inhibition at 20 µM [1, 2]: 94.4%
inhibition at 20 µM [1, 3]: 69.6%

COc1ccc(-c2csc(-c3cccnc3)n2)cc1 [IPK 000 144 22]
inhibition at 20 µM [1, 2]: 30%
inhibition at 20 µM [1, 3]: -9.8%

COc1ccc(/C=C2/c3ccccc3-c3ccc(C(=O)CCCCN4CCCCC4)cc32)cc1 [IPK 000 198 56]
inhibition at 20 µM [1, 2]: 64.7%
inhibition at 20 µM [1, 3]: 15.1%

O=[N+]([O-])c1ccc(Cl)c(/C=N/c2ccccc2O)c1 [IPK 000 169 68]
inhibition at 20 µM [1, 2]: -5.3%
inhibition at 20 µM [1, 3]: -5%

C/C(=N/NC(=O)c1cc2ccccc2cc1O)c1ccc(O)cc1 [IPK 000 180 11]
inhibition at 20 µM [1, 2]: 69.7%
inhibition at 20 µM [1, 3]: 68.2%

Cc1cccc(C(=O)NCCC(C)C)c1 [IPK 000 210 74]
inhibition at 20 µM [1, 2]: 20.2%
inhibition at 20 µM [1, 3]: 76.4%

O=[N+]([O-])c1cc(-c2nnc(-c3ccccc3)o2)cc([N+](=O)[O-])c1 [IPK 000 150 85]
inhibition at 20 µM [1, 4]: 72.3%
inhibition at 20 µM [1, 5]: 72.2%

ON=C(/C=C/c1ccccc1)/C=C/c1ccccc1 [IPK 000 168 10]
inhibition at 20 µM [1, 2]: 65.6%
inhibition at 20 µM [1, 3]: 38%

O=C(COc1ccc(F)cc1)Nc1nccs1 [IPK 000 247 44]
inhibition at 20 µM [1, 2]: 97.1%
inhibition at 20 µM [1, 3]: 89.1%

O=C(Nc1ccc(Br)cc1)c1cc([N+](=O)[O-])cc([N+](=O)[O-])c1 [IPK 000 046 92]
Primary QIM CellNb (Raw264.7 cells): 303.5
inhibition at 20 µM ([1]; confirmation, 20 uM, read-out: QIM Confirm % Inhibition 20 uM): 93.4%
inhibition at 20 µM ([1]; primary screen, 20 μM, read-out: Primary QIM % Inhibition): 90.2%

O=C(Nc1ccc(C(F)(F)F)cc1)Nc1cccc(Cl)c1 [IPK 000 147 54]
inhibition at 20 µM [1, 2]: 10.1%
inhibition at 20 µM [1, 3]: -10.9%

CCCCNC(=O)c1cc([N+](=O)[O-])cc([N+](=O)[O-])c1 [IPK 000 046 87]
inhibition at 20 µM [1, 4]: 74.4%
inhibition at 20 µM [1, 5]: 56.3%

COc1ccccc1N1CCN(C(=O)c2ccc([N+](=O)[O-])o2)CC1 [IPK 000 235 12]
inhibition at 20 µM [1, 2]: 26.9%
inhibition at 20 µM [1, 3]: -67.9%

C/C(Cn1nnc([N+](=O)[O-])n1)=N\Nc1c(Cl)cc(Cl)cc1Cl [IPK 000 150 48]
inhibition at 20 µM [1, 2]: 16.1%
inhibition at 20 µM [1, 3]: -96.3%

CCN(CC)c1ccc(/C=N/NC(=O)c2ccncc2)cc1 [IPK 000 195 99]
inhibition at 20 µM [1, 2]: 69.5%
inhibition at 20 µM [1, 3]: 79.1%

Source: patent publication US8785452B2, “Anti-infective compounds” (priority 2008, dated 2014)
